In patent publication US5550128A, “Enantiomers of gamma methylene 10-deaza aminopterin and process for preparing the same” (priority 1994, dated 1996):

Experiments:
[1] = tested on: Human HCT-8 Ileocecal Xenograft; assay: Antitumor activity by I.V. push, daily × 5, against human HCT-8 ileocecal xenograft; conditions: for CR: Complete Regression / MIR: Maximum inhibitory rate / PR: Partial Regression / TD: Tumor doubling time: i.v. push daily × 5
Excerpt: [M. G. Nair and Ann Abraham, U.S. Pat. No. 4,996,207 (1991); M. G. Nair, U.S. Pat. No. 5,073,554 (1991 )]. […] [Ann Abraham, M. G. Nair, et al. Advanced in Exp. Med. and Biol. 663-666 (1993)].
MIR: Maximum inhibitory rate. TD: Tumor doubling time.
CR: Complete Regression. PR Partial Regression.
(§1) MWL: Maximum Weight Loss.

[2] = tested on: Human HCT-8 Ileocecal Xenograft; assay: Antitumor activity by continuous i.v. infusion (C.I.) × 5d against human HCT-8 ileocecal xenograft; format: in vivo, human (xenograft in nude mice); conditions: C.I. × 5d
Excerpt: Antitumor Activity of MDAM by C.I. × 5d
against HUMAN HCT-8 Ileocecal Xenograft
MIR: Maximum inhibitory rate.
TD: Tumor doubling time.
CR: Complete Regression.
PR: Partial Regression.
as §1

[3] = molecular target: T1, Recombinant Human Dihydrofolate Reductase (Homo sapiens, UniProt P00374); assay: Inhibition of recombinant human dihydrofolate reductase, spectrophotometric enzyme assay; format: biochemical
T1 sequence (P00374 1-187): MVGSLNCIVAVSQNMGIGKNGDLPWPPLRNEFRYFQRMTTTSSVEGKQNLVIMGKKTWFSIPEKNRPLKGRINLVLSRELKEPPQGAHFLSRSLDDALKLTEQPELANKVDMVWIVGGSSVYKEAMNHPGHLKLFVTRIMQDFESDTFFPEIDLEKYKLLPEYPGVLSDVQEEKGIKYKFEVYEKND
Procedure: Enzyme assay was performed spectrophotometrically in a solution containin
50 μM dihydrofolate, 80 μM NADPH, 0.05 M Tris HCl. 0.01 M
2mercaptoethanol and 0.001 M EDTA at pH 7.4 at 30°. The reaction
Pure human recombinant enzyme was used.

[4] = tested on: transport of radiolabeled folinic acid to H35 hepatoma cells; assay: Inhibition of transport of radiolabeled folinic acid to H35 hepatoma cells; format: cell-based; conditions: H35 hepatoma cells; read-out: l50 value, inhibition of transport of radiolabeled folinic acid
Procedure: (§2) Independent, further evidences to the identity of L-MDAM as the biologically active enantiomer of the racemic mixture of D,L-MDAM (previously described as MDAM; Ref, U.S. Pat. No. 4,996,207) was obtained by the following data. […] The cytotoxicity of L-MDAM versus D,L-MDAM was also compared. […] The l50 value for growth inhibition (Gl50) was 39 nM for D,L-MDAM. […] Taken together, these unexpected and novel results establish that the biologically active compound present in the racemic mixture of MDAM is the L-enantiomer described in claim number 1.

H35 hepatoma cells = assay: Growth inhibition of H35 hepatoma cells in culture; format: cell-based; conditions: H35 hepatoma cells in culture, identical conditions; read-out: l50 value for growth inhibition (Gl50)
Procedure: as §2

[5] = tested on: human tumor cell lines in culture; assay: Human Tumor Disease Oriented in vitro screen, panel as a whole; format: cell-based; conditions: relative to methotrexate, or enantiomer comparison
Procedure: Further, by analogy to methotrexate (rheumatrex) L-MDAM should be useful in the treatment of autoimmune diseases such as rheumatoid arthritis and inflammatory diseases such as asthma.
A 48 h continuous drug exposure protocol was used combined with an SR13
protein assay to estimate cell growth or viability.

L1210 leukemia = conditions: animals bearing L1210 leukemia; cited from earlier work
P388 leukemia = conditions: animals bearing P388 leukemia; cited from earlier work
[6] = animals; relative to MTX; cited from earlier work
[7] = single iv push daily for 5 days at the maximum tolerated dose, nude mice

C=C(CC(NC(=O)c1ccc(CCc2cnc3nc(N)nc(N)c3n2)cc1)C(=O)O)C(=O)O (racemic) [D,L-MDAM, γ-methylene-10-deazaaminopterin]
CR: Complete Regression ([1]; 30 mg/kg): 0% | MIR: Maximum inhibitory rate ([1]; 30 mg/kg): 58.8 ± 9.2% | PR: Partial Regression ([1]; 30 mg/kg): 0% | TD: Tumor doubling time ([1]; 30 mg/kg): 6.2 ± 0.9 days | CR: Complete Regression ([1]; 40 mg/kg): 25% | MIR: Maximum inhibitory rate ([1]; 40 mg/kg): 79.2 ± 7.5% | PR: Partial Regression ([1]; 40 mg/kg): 25% | TD: Tumor doubling time ([1]; 40 mg/kg): 7.1 ± 0.5 days | CR: Complete Regression ([1]; 50 mg/kg): 25% | MIR: Maximum inhibitory rate ([1]; 50 mg/kg): 79.2 ± 6.2% | PR: Partial Regression ([1]; 50 mg/kg): 50% | TD: Tumor doubling time ([1]; 50 mg/kg): 8.4 ± 0.4 days | antitumor response [1, 7]: 75% | complete tumor regression [1, 7]: 25% | CR: Complete Regression ([2]; 0.5 mg/kg): 0% | MIR: Maximum inhibitory rate ([2]; 0.5 mg/kg): 49.8 ± 8.2% | PR: Partial Regression ([2]; 0.5 mg/kg): 0% | TD: Tumor doubling time ([2]; 0.5 mg/kg): 5.3 ± 0.9 days | CR: Complete Regression ([2]; 1 mg/kg): 0% | MIR: Maximum inhibitory rate ([2]; 1 mg/kg): 56.4 ± 7.8% | PR: Partial Regression ([2]; 1 mg/kg): 0% | TD: Tumor doubling time ([2]; 1 mg/kg): 6.0 ± 0.7 days | CR: Complete Regression ([2]; 2 mg/kg(/day)): 38% | PR: Partial Regression ([2]; 2 mg/kg(/day)): 38% | MIR: Maximum inhibitory rate ([2]; 2 mg/kg): 81.7 ± 7.2% | TD: Tumor doubling time ([2]; 2 mg/kg): 12.4 ± 5.8 days | IC50 ([3]; 50 μM dihydrofolate, 80 μM NADPH, pH 7.4, 30°): 44 nM | IC50 Compound/IC50 MTX ([3]; ratio to MTX): 2.58 | IC50 [4]: 5500 nM | IC50 (H35 hepatoma cells): 39 nM | activity/potency in inhibiting growth of human tumor cell lines (in words) [5]: more potent activity relative to methotrexate in several tumor cell lines | activity/potency in inhibiting growth of human tumor cell lines (in words) ([5]; listed as MDAM): equivalent or greater potency than methotrexate | in vivo antitumor activity relative to MTX (L1210 leukemia): superior in vivo antitumor activity relative to the polyglutamylatable MTX | in vivo antitumor activity relative to MTX (P388 leukemia): superior in vivo antitumor activity relative to the polyglutamylatable MTX | tolerability [6]: tolerated by animals at higher doses
